Columns and labels:
Capture PRLR SMO oligo = test: ELOSA competition with PRLR SMO capture oligonucleotide and HRP-PRLR SMO; assay type: binding, mouse; conditions: for hybridization to Capture PRLR SMO / displacement of HRP-PRLR SMO (absorbance): PRLR SMO capture oligonucleotide at increasing concentrations, mouse sequences
Experimental: The capture reagent was synthesized using a sequence antisense to the test oligonucleotide, along with an amino-terminus and a 12 carbon aliphatic spacer. The amino-terminus allows binding to the wells of a 96-well, polystyrene DNA-binding plate and the spacer minimizes steric hindrance during hybridization of the test oligonucleotides. The capture reagent (2 picomoles/well) was incubated in 100 μl 0.05M phosphate (pH 8.5) —1 mM EDTA at 4° C. for 24 h or longer.
(§1) After washing (3 times with 0.05M TrisHCl (pH 8)—1 mM EDTA), the plate was blocked to reduce non-specific binding (200 μl 3% bovine serum albumin—0.05M TrisHCl (pH 8)—1 mM EDTA at 37° C. for 4 h).
After washing 3 times, the test oligo and a constant concentration of horseradish peroxidase-labeled oligonucleotide (i.e., the competition oligonucleotide with a sequence the same as test oligo) was incubated with the capture reagent. The amount of competition oligonucleotide hybridized to the capture reagent is inversely proportional to the total amount of test oligonucleotide present. Incubations were in a total final volume of 100 μl in 0.05M TrisHCl (pH 7.5)—1 mM EDTA, with Test oligo (variable doses up to 1 pmole), constant HRP-Oligo (0.5-1 pmole), and a total serum volume of 10 to 25 μl. Incubations were at 37° C. for 15 h.
After washing 3 times with TBST, the competition oligonucleotide bound to the capture reagent was measured using 100 μl 0.1 mg/ml TMB—1% hydrogen peroxide. After color development, the reaction was stopped with 50 μl 1N H2SO4, and the amount of colored product was measured spectrophotometrically at A450.
For clarity, the PRLR SMO vivo-morpholino is referred to as Antimaia to distinguish it from the oligonucleotides being used for competition or capture, which are called HRP-PRLR SMO and capture PRLR SMO, respectively. […] The methods used for these experiments are described in Example 1.

[1] = tested on: prolactin receptor (PRLR); conditions: treatment with PRLR SMO; cited from earlier work
[2] = tested on: Capture Control SMO oligo; test: ELOSA competition with Control SMO capture oligonucleotide and HRP-Control SMO; assay type: binding; conditions: test oligo 5 pmoles; HRP-Control SMO 1 pmole; Capture Control SMO 5 pmoles
Experimental: The capture reagent was synthesized using a sequence antisense to the test oligonucleotide, along with an amino-terminus and a 12 carbon aliphatic spacer. The amino-terminus allows binding to the wells of a 96-well, polystyrene DNA-binding plate and the spacer minimizes steric hindrance during hybridization of the test oligonucleotides. […]
as §1
After washing 3 times, the test oligo and a constant concentration of horseradish peroxidase-labeled oligonucleotide (i.e., the competition oligonucleotide with a sequence the same as test oligo) was incubated with the capture reagent. The amount of competition oligonucleotide hybridized to the capture reagent is inversely proportional to the total amount of test oligonucleotide present. […] Incubations were at 37° C. for 15 h.
After washing 3 times with TBST, the competition oligonucleotide bound to the capture reagent was measured using 100 μl 0.1 mg/ml TMB—1% hydrogen peroxide. After color development, the reaction was stopped with 50 μl 1N H2SO4, and the amount of colored product was measured spectrophotometrically at A450. […]

[3] = tested on: orthotopic models of breast cancer; conditions: cited from earlier work

Row | Substance | sensitivity of the assay (Capture PRLR SMO oligo; Capture PRLR SMO 2 pmoles, HRP-PRLR-SMO 0.5 pmole, presence of serum) | hybridization to Capture PRLR SMO / displacement of HRP-PRLR SMO (absorbance) (Capture PRLR SMO oligo) | competition easily detected above (Capture PRLR SMO oligo; capture reagent 2 pmoles, HRP-PRLR SMO in the 0.5 pmole range, presence of serum) | effect on PRLR splice forms [1] | competition with HRP-Control SMO for binding to the Capture Control SMO [2] | tolerability ([3]; in vivo) | reduction in metastatic spread ([3]; two orthotopic models of breast cancer)
1 | 5′-AAAAAGCCCTTCTATTGAAACACAGATACAAAA-3′ (SEQ ID NO: 4) (all phosphorodiamidate morpholino (PMO); vivo-morpholino: octaguanidine derivatization attached, position not given here; listed as Mus sp.) [Antimaia, vivo-morpholino splice-modulating oligomer for the prolactin receptor, phosphorodiamidate morpholino backbone and octaguanidine derivatizations] | 0.25 pmol | displaced HRP-PRLR SMO | above 0.2 pmoles | loss of the growth-promoting PRLR without loss of the growth-inhibiting splice form of the PRLR | essentially no effect | well-tolerated | 80%
2 | 5′-AAAAAAGACGAGATTCGATCGGAGTAAAA-3′ (SEQ ID NO: 1) (all phosphorodiamidate morpholino (PMO); vivo-morpholino: octaguanidine derivatization attached, position not given here) [Control SMO, reference compound] |  | did not hybridize |  |  | competed |  | 

From patent publication US20190136302A1, “METHODS FOR DETECTING OLIGONUCLEOTIDES IN A SAMPLE” (THE REGENTS OF THE UNIVERSITY OF CALIFORNIA, priority 2016, published 2019)
